Reference: ChEMBL document CHEMBL1140156, “Polyoxygenated diterpenes from the sponge Phorbas sp” (2008)
Values after ≈ are worked out from the molar mass of the structure shown. Active and inactive are the calls of the source. The calls are words filed in the database; no cut-off is given here.

What was measured:
K562 = test: Cytotoxicity against human K562 cells; assay type: functional; details: for CC50: read-out: LC50 (the source's name)
[1] = Inhibition of isocitrate lyase

Row | SMILES | Activity (K562) | Activity [1] | CC50 (K562) [µg/mL] | IC50 [1] [µg/mL]
1 | CC(C)=CCCC(C)/C=C/C=C(\C)[C@H]1CC[C@H](C(=O)O)CC1 (some centres undefined) | inactive | inactive | – | –
2 | CCCC(=O)O[C@@H]1[C@@H](OC(C)=O)[C@@H](O)C(C)=C[C@@H]2[C@H]3[C@@H](C(C)C)[C@@H](OC(=O)CC(C)C)[C@H](OC(=O)CCC)[C@@]3(C)[C@@H](OC(=O)CCC)C[C@]21C [GAGUNIN A] | – | – | 18.1 (≈ 25.6 µM) | 55 (≈ 77.8 µM)
3 | CCCC(=O)O[C@@H]1[C@H](C(C)C)[C@@H]2[C@H]3C=C(C)[C@H](O)[C@H](OC(C)=O)[C@@H](OC(=O)CCC)[C@]3(C)C[C@H](OC(=O)CCC)[C@]2(C)[C@H]1OC(=O)CCC [GAGUNIN B] | – | – | 3.5 (≈ 5.05 µM) | 55 (≈ 79.4 µM)
4 | CCCC(=O)O[C@@H]1[C@H](C(C)C)[C@@H]2[C@H]3C=C(C)[C@H](O)[C@H](OC(C)=O)[C@@H](OC(=O)CCC)[C@]3(C)C[C@H](OC(=O)CCC)[C@]2(C)[C@H]1OC(C)=O [GAGUNIN C] | – | – | 0.37 (≈ 0.557 µM) | 55 (≈ 82.7 µM)
5 | CCCC(=O)O[C@H]1C[C@]2(C)[C@H]([C@H]1C(C)C)[C@H]1C=C(C)[C@H](O)[C@H](OC(C)=O)[C@@H](OC(=O)CCC)[C@]1(C)C[C@@H]2OC(=O)CCC [GAGUNIN D] | – | – | 0.19 (≈ 0.313 µM) | 55 (≈ 90.6 µM)
6 | CCCC(=O)O[C@H]1C[C@]2(C)[C@H]([C@H]1C(C)C)[C@H]1C=C(C)[C@H](OC(C)=O)[C@H](O)[C@@H](OC(=O)CCC)[C@]1(C)C[C@@H]2OC(=O)CCC [GAGUNIN F] | – | – | 0.25 (≈ 0.412 µM) | 55 (≈ 90.6 µM)
7 | CCCC(=O)O[C@H]1C[C@]2(C)[C@H](C=C(C)[C@H](OC(C)=O)[C@H](O)[C@H]2OC(=O)CCC)[C@H]2[C@@H](C(C)C)[C@@H](OC(C)=O)C[C@]21C [GAGUNIN G] | – | – | 0.45 (≈ 0.778 µM) | 55 (≈ 95 µM)
8 | CCCC(=O)O[C@@H]1[C@H](C(C)C)[C@@H]2[C@H]3C=C(C)[C@H](O)[C@H](OC(C)=O)[C@@H](OC(=O)CCC)[C@]3(C)C[C@H](OC(=O)CC)[C@]2(C)[C@H]1OC(=O)CCC [GAGUNIN H] | – | – | 10 (≈ 14.7 µM) | 55 (≈ 81 µM)
9 | CCCC(=O)O[C@@H]1[C@H](C(C)C)[C@@H]2[C@H]3C=C(C)[C@H](O)[C@H](OC(C)=O)[C@@H](OC(=O)CCC)[C@]3(C)C[C@H](OC(C)=O)[C@]2(C)[C@H]1OC(=O)CCC [GAGUNIN I] | – | – | 11.5 (≈ 17.3 µM) | 55 (≈ 82.7 µM)
10 | CCCC(=O)O[C@@H]1[C@H](C(C)C)[C@@H]2[C@H]3C=C(C)[C@H](O)[C@H](OC(C)=O)[C@@H](OC(=O)CCC)[C@]3(C)C[C@H](OC(=O)CCC)[C@]2(C)[C@H]1OC(=O)CC [GAGUNIN J] | – | – | 9.1 (≈ 13.4 µM) | 55 (≈ 81 µM)
11 | CCCCC(=O)O[C@@H]1[C@H](C(C)C)[C@@H]2[C@H]3C=C(C)[C@H](O)[C@H](OC(C)=O)[C@@H](OC(=O)CCC)[C@]3(C)C[C@H](OC(=O)CCC)[C@]2(C)[C@H]1OC(=O)CCC [GAGUNIN K] | – | – | 17.5 (≈ 24.8 µM) | 55 (≈ 77.8 µM)
12 | CCCC(=O)O[C@H]1C[C@]2(C)[C@H]([C@H]1C(C)C)[C@H]1C=C(C)[C@H](O)[C@H](OC(C)=O)[C@@H](OC(=O)CCC)[C@]1(C)C[C@@H]2OC(C)=O [GAGUNIN L] | – | – | 12.5 (≈ 21.6 µM) | 55 (≈ 95 µM)
13 | CCCC(=O)O[C@H]1C[C@]2(C)[C@H]([C@H]1C(C)C)[C@H]1C=C(C)[C@H](O)[C@H](OC(C)=O)[C@@H](OC(=O)CCC)[C@]1(C)C[C@@H]2OC(=O)CC(C)C [GAGUNIN M] | – | – | 0.71 (≈ 1.14 µM) | 55 (≈ 88.6 µM)
14 | CCCC(=O)O[C@H]1C[C@]2(C)[C@H]([C@H]1C(C)C)[C@H]1C=C(C)[C@H](OC(C)=O)[C@H](O)[C@@H](OC(=O)CCC)[C@]1(C)C[C@@H]2OC(C)=O [GAGUNIN N] | – | – | > 50 | 55 (≈ 95 µM)
15 | CCCC(=O)O[C@@H]1[C@H](C(C)C)[C@@H]2[C@H]3C=C(C)[C@H](OC(C)=O)[C@H](O)[C@@H](OC(=O)CCC)[C@]3(C)C[C@H](OC(=O)CCC)[C@]2(C)[C@H]1OC(=O)CCC [GAGUNIN O] | – | – | 11.1 (≈ 16 µM) | 55 (≈ 79.4 µM)
16 | CCCC(=O)O[C@@H]1[C@H](C(C)C)[C@@H]2[C@H]3C=C(C)[C@H](O)[C@H](OC(C)=O)[C@@H](OC(C)=O)[C@]3(C)C[C@H](OC(=O)CCC)[C@]2(C)[C@H]1OC(=O)CCC [GAGUNIN P] | – | – | 8.5 (≈ 12.8 µM) | 55 (≈ 82.7 µM)
17 | CCCC(=O)O[C@@H]1[C@H](C(C)C)[C@@H]2[C@H]3C=C(C)[C@H](O)[C@H](OC(=O)CC)[C@@H](OC(=O)CCC)[C@]3(C)C[C@H](OC(=O)CCC)[C@]2(C)[C@H]1OC(=O)CCC [GAGUNIN Q] | – | – | > 50 | 55 (≈ 77.8 µM)
